Drawing on patent US8173689B2 (Novartis AG, priority 2006, dated 2012), this text covers inhibition for 21 compounds.

Where two headings read alike, the source gives them in different places.

In general, inhibition refers to the change of the read-out against control, counted positive when it falls.

Assay [1] has as its target T1, cytoplasmic domain of the human CSF-1R (Homo sapiens, UniProt P07333).
T1 construct: Recombinant protein corresponding to the cytoplasmic domain of the human CSF-1R; purchased Invitrogen Corporation, Carlsbad, Calif; PV3249
T1 sequence (P07333 539-972 limits assumed): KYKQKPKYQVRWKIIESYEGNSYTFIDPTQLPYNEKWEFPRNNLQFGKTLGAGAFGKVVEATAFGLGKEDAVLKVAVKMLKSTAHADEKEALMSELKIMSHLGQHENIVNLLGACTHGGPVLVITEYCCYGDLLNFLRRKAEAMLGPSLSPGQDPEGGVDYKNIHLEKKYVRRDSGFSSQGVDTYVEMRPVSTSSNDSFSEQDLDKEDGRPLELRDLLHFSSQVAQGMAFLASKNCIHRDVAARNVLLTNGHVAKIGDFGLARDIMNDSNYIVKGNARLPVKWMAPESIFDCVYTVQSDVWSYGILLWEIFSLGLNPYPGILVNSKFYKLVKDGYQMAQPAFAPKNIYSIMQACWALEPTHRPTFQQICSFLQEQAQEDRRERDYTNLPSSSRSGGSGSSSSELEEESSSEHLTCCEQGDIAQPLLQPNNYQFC
Briefly: In vitro kinase assay for colony stimulating factor-1 receptor (AlphaScreen). Type of assay: biochemical. Conditions: tested at about 1 μM, read-out: CSF-1R percent inhibition. An outline of the steps: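 AlphaScreen read-out (PT66 anti-pTyr acceptor beads, streptavidin donor beads, overnight incubation) measured phosphorylated peptide product. The product was formed by the human CSF-1R cytoplasmic domain at 4 nM with 1 µM ATP in Mg2+/Mn2+ HEPES buffer, pH 7.5. Compound dilution series were 3-fold, starting at 25 µM.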
(In general: Alpha assays give light when donor and acceptor beads are brought close together.)

Another assay has as its target T2, kinase domain of PDGFRβ (Homo sapiens, UniProt P09619).
T2 construct: The kinase domain of PDGFRβ was assayed in 50 mM Hepes; purchased Invitrogen P3082
Briefly: Inhibition of PDGFRb kinase signaling in an in vitro biochemical assay (alphascreen). Conditions: tested at about 1 μM, read-out: PDGFRβ percent inhibition.

Assay [2] relates to MNFS60 (murine AML cells). Put plainly: Cell viability assay in MCSF dependent MNFS60 cells (Cell Titer Glo). To be noted: Mus musculus, tested at about 1 μM, read-out: M-NFS-60 CP percent inhibition. Type of assay: cell-based. Summed up: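 Luminescent ATP signal (CellTiter-Glo) after 72 hrs of compound exposure served as the viability measure. Growth was supported by 10 ng/ml MCSF (final), and EC50 values come from fitted triplicate data.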

The target of a further assay is T3, kinase domain of cKIT (Homo sapiens, UniProt P10721).
T3 construct: The kinase domain of cKIT was assayed in 50 mM Hepes; purchased Upstate 14-559
Briefly: Inhibition of cKIT kinase signaling in an in vitro biochemical assay (alphascreen). Conditions: tested at about 1 μM, read-out: cKit percent inhibition.

T2 sequence (P09619 600-962 limits assumed): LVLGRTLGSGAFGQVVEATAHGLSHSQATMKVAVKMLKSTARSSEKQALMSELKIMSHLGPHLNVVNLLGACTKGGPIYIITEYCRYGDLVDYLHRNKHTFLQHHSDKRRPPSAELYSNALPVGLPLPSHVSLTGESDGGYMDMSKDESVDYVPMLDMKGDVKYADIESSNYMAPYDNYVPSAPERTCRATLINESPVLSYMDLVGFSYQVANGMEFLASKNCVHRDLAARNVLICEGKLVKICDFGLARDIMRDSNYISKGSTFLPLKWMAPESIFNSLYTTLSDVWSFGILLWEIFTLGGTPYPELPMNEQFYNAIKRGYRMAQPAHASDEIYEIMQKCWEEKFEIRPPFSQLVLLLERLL
T3 sequence (P10721 589-937 limits assumed): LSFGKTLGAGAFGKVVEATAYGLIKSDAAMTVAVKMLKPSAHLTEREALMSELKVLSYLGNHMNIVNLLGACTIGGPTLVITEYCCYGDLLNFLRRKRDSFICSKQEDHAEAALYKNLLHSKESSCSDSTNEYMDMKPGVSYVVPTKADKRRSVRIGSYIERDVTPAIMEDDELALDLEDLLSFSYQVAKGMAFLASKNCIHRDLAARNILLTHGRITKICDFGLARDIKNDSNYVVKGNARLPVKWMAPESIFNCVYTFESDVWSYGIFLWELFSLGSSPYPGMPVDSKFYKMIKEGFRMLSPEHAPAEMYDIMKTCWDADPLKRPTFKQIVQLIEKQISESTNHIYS

On to `N#Cc1ccc2c(Oc3ccc4nc(NCC5CCCCC5)sc4c3)ccnc2c1` [Example 221, 4-(2-(cyclohexylmethylamino)benzo[d]thiazol-6-yloxy)quinoline-7-carbonitrile], for which the inhibition at 1 µM in assay [1] (compounds of Table 3) stood at 100%; on kinase domain of PDGFRβ (compounds of Table 3) it was 88%; in assay [2] (compounds of Table 3), 52%; at kinase domain of cKIT (compounds of Table 3), 97%.

On to `COc1ccccc1CNc1nc2ccc(Oc3ccnc4ccccc34)cc2s1` [Example 257, N-(2-methoxybenzyl)-6-(quinolin-4-yloxy)benzo[d]thiazol-2-amine], for which the inhibition at 1 µM in assay [1] (compounds of Table 3) was found to be 100%; at kinase domain of PDGFRβ (compounds of Table 3) it was 11%; in assay [2] (compounds of Table 3), 100%; on kinase domain of cKIT (compounds of Table 3) it was 100%.

Take `CNC(=O)c1cc(Oc2ccc3nc(N[C@H]4[C@H]5CC[C@H](C5)[C@H]4CO)sc3c2)ccn1` [Example 325, 4-(2-((1S,3R,4R)-3-(hydroxymethyl)bicyclo[2.2.1]heptan-2-ylamino)benzo[d]thiazol-6-yloxy)-N-methylpicolinamide]: the inhibition at 1 µM in assay [1] is 100%; at kinase domain of PDGFRβ, 43%; in assay [2] (MCSF dependent MNFS60 cells), 66%; at kinase domain of cKIT it was 27%.

For the compound `CNC(=O)c1cc(Oc2ccc3nc(NCCC4CC4)sc3c2)ccn1` [Example 290, 4-(2-(2-cyclopropylethylamino)benzo[d]thiazol-6-yloxy)-N-methylpicolinamide], the inhibition at 1 µM in assay [1] (compounds of Table 3) was determined as 100%; on kinase domain of PDGFRβ (compounds of Table 3), 15%; in assay [2] (compounds of Table 3) it was 2%; on kinase domain of cKIT (compounds of Table 3) it was 10%.

Regarding `CNC(=O)c1cc(Oc2ccc3nc(NCc4c(Cl)cccc4Cl)oc3c2)ccn1` [Compound 76, 4-[2-(2,6-Dichloro-benzylamino)-benzooxazol-6-yloxy]-pyridine-2-carboxylic acid methylamide], the inhibition at 1 µM came out at 98% in assay [1], 0% on kinase domain of PDGFRβ, 0% in assay [2] (MNFS60 cells) and 9% at kinase domain of cKIT.

As for `CNC(=O)c1cc(Oc2ccc3nc(NCc4cc(OC)ccc4OC)oc3c2)ccn1` [Compound 83, 4-[2-(2,5-Dimethoxy-benzyl-amino)-benzooxazol-6-yloxy]-pyridine-2-carboxylic acid methylamide], the inhibition at 1 µM in assay [1] was 99%; at kinase domain of PDGFRβ it was 0%; in assay [2] (MNFS60 cells), 26%; on kinase domain of cKIT, 12%.

Regarding `c1ccc2c(Oc3ccc4nc(NCCN5CCOCC5)sc4c3)ccnc2c1` [Example 255, N-(2-morpholinoethyl)-6-(quinolin-4-yloxy)benzo[d]thiazol-2-amine], the inhibition at 1 µM came out at 100% in assay [1] (compounds of Table 3), 8% at kinase domain of PDGFRβ (compounds of Table 3), 69% in assay [2] (compounds of Table 3) and 92% on kinase domain of cKIT (compounds of Table 3).

As to `CNC(=O)c1cc(Oc2ccc3nc(NCc4ccc5c(c4)OCCO5)oc3c2)ccn1` [Compound 122, 4-{2-[(2,3-Dihydro-benzo-[1,4]dioxin-6-ylmethyl)-amino]-benzooxazol-6-yloxy}-pyridine-2-carboxylic acid methylamide], the inhibition at 1 µM in assay [1] was found to be 100%; at kinase domain of PDGFRβ, 0%; in assay [2] (MNFS60 cells), 19%; at kinase domain of cKIT, 53%.

Consider `O[C@@H]1CCCC[C@H]1Nc1nc2ccc(Oc3ccnc(N4CCOCC4)c3)cc2s1` [Cmpd 175, (1R,2R)-2-(6-(2-morpholinopyridin-4-yloxy)benzo[d]thiazol-2-ylamino)cyclohexanol], for which the inhibition at 1 µM worked out at 100% in assay [1] (compounds of Table 3), 1% on kinase domain of PDGFRβ (compounds of Table 3), 17% in assay [2] (compounds of Table 3) and 11% at kinase domain of cKIT (compounds of Table 3).

Consider `CC[C@H](C)[C@@H](CO)Nc1nc2ccc(Oc3ccnc(-c4cnn(C)c4)c3)cc2s1` [Example 349, (2S,3S)-3-methyl-2-(6-(2-(1-methyl-1H-pyrazol-4-yl)pyridin-4-yloxy)benzo[d]thiazol-2-ylamino)pentan-1-ol], for which the inhibition at 1 µM in assay [1] turned out to be 100%; on kinase domain of PDGFRβ, 73%; in assay [2] (MCSF dependent MNFS60 cells), 100%; at kinase domain of cKIT it was 77%.

As for `CNC(=O)c1cc(Oc2ccc3nc(NCc4c(OC)cc(OC)cc4OC)oc3c2)ccn1` [Compound 113, 4-[2-(2,4,6-Trimethoxy-benzylamino)-benzooxazol-6-yloxy]-pyridine-2-carboxylic acid methylamide], the inhibition at 1 µM was 97% in assay [1], 17% on kinase domain of PDGFRβ, 19% in assay [2] (MNFS60 cells) and 7% at kinase domain of cKIT.

For `C[C@H](Nc1nc2ccc(Oc3ccnc(-c4ccnn4C)c3)cc2s1)C1CCCCC1` [Example 277, (S)-N-(1-cyclohexylethyl)-6-(2-(1-methyl-1H-pyrazol-5-yl)pyridin-4-yloxy)benzo[d]thiazol-2-amine], the inhibition at 1 µM was determined as 100% in assay [1] (compounds of Table 3), 5% on kinase domain of PDGFRβ (compounds of Table 3), 24% in assay [2] (compounds of Table 3) and 26% on kinase domain of cKIT (compounds of Table 3).

As for `CNC(=O)c1cc(Oc2ccc3nc(N[C@H]4CCC[C@@H]4O)sc3c2)ccn1` [Example 320, 4-(2-((1S,2S)-2-hydroxycyclopentylamino)benzo[d]thiazol-6-yloxy)-N-methylpicolinamide], the inhibition at 1 µM is 100% in assay [1], 20% on kinase domain of PDGFRβ, 25% in assay [2] (MCSF dependent MNFS60 cells) and 16% at kinase domain of cKIT.

`CNC(=O)c1cc(Oc2ccc3nc(NCc4c(F)cccc4OC)oc3c2)ccn1` [Compound 116, 4-[2-(2-Fluoro-6-methoxy-benzylamino)-benzooxazol-6-yloxy]-pyridine-2-carboxylic acid methylamide]: the inhibition at 1 µM in assay [1] is 100%; on kinase domain of PDGFRβ it was 18%; in assay [2] (MNFS60 cells) it was 10%; on kinase domain of cKIT it was 100%.

`CNC(=O)c1cc(Oc2ccc3nc(N[C@@H]4CCCC[C@H]4NC(C)=O)sc3c2)ccn1` [Example 298, 4-(2-((1R,2R)-2-acetamidocyclohexylamino)benzo[d]thiazol-6-yloxy)-N-methylpicolinamide]: the inhibition at 1 µM in assay [1] (compounds of Table 3) is 98%; on kinase domain of PDGFRβ (compounds of Table 3), 0%; in assay [2] (compounds of Table 3), 41%; at kinase domain of cKIT (compounds of Table 3), 13%.

`CNC(=O)c1cc(Oc2ccc3nc(NCc4cc(F)ccc4OC)oc3c2)ccn1` [Compound 115, 4-[2-(5-Fluoro-2-methoxy-benzylamino)-benzooxazol-6-yloxy]-pyridine-2-carboxylic acid methylamide]: the inhibition at 1 µM in assay [1] turned out to be 99%; at kinase domain of PDGFRβ it was 18%; in assay [2] (MNFS60 cells), 21%; on kinase domain of cKIT it was 88%.

Turning to `CNC(=O)c1cc(Oc2ccc3nc(N[C@H](CO)Cc4ccccc4)oc3c2)ccn1` [Compound 8], the inhibition at 1 µM in assay [1] (compounds of Table 3) is 95%; at kinase domain of PDGFRβ (compounds of Table 3), 31%; in assay [2] (compounds of Table 3), 0%; on kinase domain of cKIT (compounds of Table 3), 99%.

For the compound `CNC(=O)c1cc(Oc2ccc3nc(NCC4COc5ccccc5O4)sc3c2)ccn1` (stereo not drawn) [Compound 144], the inhibition at 1 µM in assay [1] (compounds of Table 3) was determined as 100%; on kinase domain of PDGFRβ (compounds of Table 3) it was 12%; in assay [2] (compounds of Table 3) it was 41%; on kinase domain of cKIT (compounds of Table 3) it was 38%.

Consider `Cc1cc(Oc2ccc3nc(NCC4CCCCC4)sc3c2)ccn1` [Example 202], for which the inhibition at 1 µM stood at 100% in assay [1] (compounds of Table 3), 19% at kinase domain of PDGFRβ (compounds of Table 3), 17% in assay [2] (compounds of Table 3) and 32% at kinase domain of cKIT (compounds of Table 3).

For the compound `O[C@@H]1CCCC[C@H]1Nc1nc2ccc(Oc3ccncc3Br)cc2s1` [Example 224, (1R,2R)-2-(6-(3-bromopyridin-4-yloxy)benzo[d]thiazol-2-ylamino)cyclohexanol], the inhibition at 1 µM in assay [1] (compounds of Table 3) was determined as 100%; on kinase domain of PDGFRβ (compounds of Table 3), 0%; in assay [2] (compounds of Table 3) it was 33%; on kinase domain of cKIT (compounds of Table 3), 26%.

Regarding `Cn1cc(-c2cnccc2Oc2ccc3nc(N[C@@H]4CCCC[C@H]4O)sc3c2)cn1` [Example 189], the inhibition at 1 µM in assay [1] (compounds of Table 3) worked out at 100%; at kinase domain of PDGFRβ (compounds of Table 3) it was 23%; in assay [2] (compounds of Table 3), 26%; on kinase domain of cKIT (compounds of Table 3) it was 31%.
